Reference: patent publication US20110130425A1, “Use of H3 Histaminergic Agonists for the Treatment of Addiction to Drugs of Abuse” (priority 2009, published 2011)

Columns and labels:
[1] = test system: dopamine release; test: Nicotine stimulation of dopamine release in striatal miniprisms; format: cell-based, Sprague-Dawley rat; conditions: 0.5 mM L-histidine preincubation; 100 nM nicotine, 15 mM K+; rat striatal miniprisms; vs controls
Experimental: One male Sprague-Dawley rat obtained from Charles-River weighing 200-250 g is used. The rat brain is rapidly removed and placed in ice-cold oxygen-saturated (O2/CO2:95%/5%) Krebs bicarbonate buffer (124 mM NaCl, 0.8 mM KCl, 1.25 mM NaH2PO4, 1.2 mM KH2PO4, 0.67 mM MgSO4, 2.6 mM CaCl2, 10 mM glucose and 27.5 mM NaHCO3, pH 7.4). The striata is dissected and cut using a Mcllwain™ Mechanical Tissue Copper (Stoelting Co., Wood Dale, Ill.) into miniprisms of 0.3 mm/side. The microprims are transferred to ice-cold Krebs buffer, gently centrifuged, and the buffer changed to remove damaged tissue and cellular debris.
Brain miniprisms are distributed into 24 flat-bottom Eppendorf tubes and preincubated for 2 hours in 0.25 mL Krebs buffer at 37° C. using an Eppendorf Thermomixer® under a O2/CO2 atmosphere. Then the medium is replaced with fresh Krebs buffer at 37° C. with or without 0.5 mM L-histidine prepared in the same buffer. This concentration of L-histidine is similar to that reached in plasma of L-histidine-treated humans (Block et al., 1967). […]
All samples are then cooled down on ice and quickly centrifuged at 1000×g for 1 minute to separate buffer from tissue. […] An automatic autosampler Merck-Hitachi L-7200 and an automated fraction collector Gilson FC203B automatically recover internal standard dopamine peaks when UV detected into scintillation vials. […]

[2] = test system: morphine/heroin seeking behaviour; test: Extinction and reinstatement of morphine/heroin seeking, mouse intravenous operant self-administration; format: in vivo, C57B16/J mice; conditions: L-histidine 1 g/kg or 2 g/kg; mice
Experimental: L-Histidine solution: L-Histidine (Sigma, H-8000) at a 155.15 g/mol concentration in 0.34 M phosphoric acid is prepared as follows. 1.5 g L-histidine are dissolved in 12 ml of 0.34 M phosphoric acid to obtain a 0.8 M solution of L-histidine at approximately pH 6. pH is verified, and 0.1 g of NaCl added to a final concentration of 0.9%. Finally, the L-histidine solution is sterilized by filtration.
Animals: Male C57B16/J mice (Charles River, France) are housed individually in controlled laboratory conditions with the temperature maintained at 21±1° C., humidity at 55±10%, and light reversal cycle (light on at 20.00 h, light off at 08.00 h). Mice are tested during the dark phase of a light reversal cycle. Behavioural tests and animal care are conducted in accordance with the standard ethical guidelines (National Institutes of Health 1995; European Communities Directive 86/609 EEC) and the protocols are approved by the local ethical committee (CEEA-PRBB).
Apparatus: The self-administration experiments are conducted in mouse operant chambers (Model ENV-307A-CT, Medical Associates, Georgia, VT, USA). The experimental chambers are equipped with a house light, ventilator fan, drug infusion pump, liquid swivel with counterbalanced arm, and two manipulanda with cue lights that are located on either side of a food dipper. The manipulanda are holes (1.2 cm diameter).
The chambers are housed in sound- and light-attenuated boxes equipped with fans to provide ventilation and white noise. […]
The catheter tubing is inserted 1.3 cm into the right jugular vein and anchored with suture. […] The patency of intravenous catheters is evaluated periodically (approximately every 6 days). Patency is also evaluated whenever drug self-administration behavior appears to deviate dramatically from that observed previously. […]
L-Histidine dosage: The first L-histidine dose is 1 g/kg. […] Dosage for other H3 histaminergic agonists or H3 histaminergic agonist precursors is determined considering the pharmacokinetic and toxicological characteristics of the compound. […]

N[C@@H](Cc1c[nH]cn1)C(=O)O [L-histidine]
dopamine release caused by nicotine stimulation [1]: less dopamine release | cue-induced reinstatement of morphine/heroine seeking [2]: decreases cue-induced reinstatement | number of sessions required to achieve extinction criteria (morphine/heroin) [2]: shortens the number of sessions | responding during the first extinction session (morphine/heroin) [2]: decreases or delays responding
